# Results: US6348309B1, “Process for inactivating viruses in blood and blood products” (priority 1989, dated 2002)
# Marks after values point to notes of the source that are not given here.
# Legend:
# Semliki Forest = format: cell-based
# Herpes Simplex = assay: MB/light virus inactivation in plasma (Example 6, Table VI); format: cell-based; settings: illumination 60 min; * production conditions, plastic bag 250-300 ml plasma
# SV40 = format: cell-based
# coagulation factor IX [1] = biological target: T1, coagulation factor IX (Homo sapiens, UniProt P00740); assay: Coagulation factor activity in human plasma with MB and light exposure (Example 10); format: biochemical
# T1 construct: Varying amounts of MB were added to human plasma (2 ml aliquots); from tissue; host or cells: human plasma
# T1 sequence (P00740 47-461): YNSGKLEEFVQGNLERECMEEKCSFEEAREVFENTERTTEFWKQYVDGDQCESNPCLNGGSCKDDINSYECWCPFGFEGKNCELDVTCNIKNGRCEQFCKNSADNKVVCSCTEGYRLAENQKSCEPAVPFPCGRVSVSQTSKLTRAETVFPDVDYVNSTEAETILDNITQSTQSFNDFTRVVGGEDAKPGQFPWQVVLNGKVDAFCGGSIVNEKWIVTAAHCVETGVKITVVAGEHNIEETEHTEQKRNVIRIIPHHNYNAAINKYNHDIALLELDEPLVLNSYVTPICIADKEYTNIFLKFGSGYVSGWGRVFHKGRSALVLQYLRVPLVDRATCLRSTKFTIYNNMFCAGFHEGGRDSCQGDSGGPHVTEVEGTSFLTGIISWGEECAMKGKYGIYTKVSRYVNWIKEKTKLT
# SIV = assay: MB/light virus inactivation in plasma (Example 6, Table VI); format: cell-based; settings: illumination 15 min; * production conditions, plastic bag 250-300 ml plasma
# Hog Cholera = format: cell-based
# Vesicular Stomatitis = format: cell-based
# HIV-1 = assay: MB/light virus inactivation in plasma (Example 6, Table VI); format: cell-based; settings: illumination 10 min
# VSV [2] = format: cell-based, vesicular stomatitis virus
# factor VIII = biological target: T2, factor VIII (Homo sapiens, UniProt P00451); assay: Factor VIII content of plasma after MB and adsorbing agent (Example 14); format: biochemical; settings: fresh plasma + MB 10 μM, no adsorbing agent
# T2 construct: MB was added to 250 ml fresh plasma; from tissue; host or cells: fresh plasma
# T2 sequence (P00451 20-1332 limits assumed): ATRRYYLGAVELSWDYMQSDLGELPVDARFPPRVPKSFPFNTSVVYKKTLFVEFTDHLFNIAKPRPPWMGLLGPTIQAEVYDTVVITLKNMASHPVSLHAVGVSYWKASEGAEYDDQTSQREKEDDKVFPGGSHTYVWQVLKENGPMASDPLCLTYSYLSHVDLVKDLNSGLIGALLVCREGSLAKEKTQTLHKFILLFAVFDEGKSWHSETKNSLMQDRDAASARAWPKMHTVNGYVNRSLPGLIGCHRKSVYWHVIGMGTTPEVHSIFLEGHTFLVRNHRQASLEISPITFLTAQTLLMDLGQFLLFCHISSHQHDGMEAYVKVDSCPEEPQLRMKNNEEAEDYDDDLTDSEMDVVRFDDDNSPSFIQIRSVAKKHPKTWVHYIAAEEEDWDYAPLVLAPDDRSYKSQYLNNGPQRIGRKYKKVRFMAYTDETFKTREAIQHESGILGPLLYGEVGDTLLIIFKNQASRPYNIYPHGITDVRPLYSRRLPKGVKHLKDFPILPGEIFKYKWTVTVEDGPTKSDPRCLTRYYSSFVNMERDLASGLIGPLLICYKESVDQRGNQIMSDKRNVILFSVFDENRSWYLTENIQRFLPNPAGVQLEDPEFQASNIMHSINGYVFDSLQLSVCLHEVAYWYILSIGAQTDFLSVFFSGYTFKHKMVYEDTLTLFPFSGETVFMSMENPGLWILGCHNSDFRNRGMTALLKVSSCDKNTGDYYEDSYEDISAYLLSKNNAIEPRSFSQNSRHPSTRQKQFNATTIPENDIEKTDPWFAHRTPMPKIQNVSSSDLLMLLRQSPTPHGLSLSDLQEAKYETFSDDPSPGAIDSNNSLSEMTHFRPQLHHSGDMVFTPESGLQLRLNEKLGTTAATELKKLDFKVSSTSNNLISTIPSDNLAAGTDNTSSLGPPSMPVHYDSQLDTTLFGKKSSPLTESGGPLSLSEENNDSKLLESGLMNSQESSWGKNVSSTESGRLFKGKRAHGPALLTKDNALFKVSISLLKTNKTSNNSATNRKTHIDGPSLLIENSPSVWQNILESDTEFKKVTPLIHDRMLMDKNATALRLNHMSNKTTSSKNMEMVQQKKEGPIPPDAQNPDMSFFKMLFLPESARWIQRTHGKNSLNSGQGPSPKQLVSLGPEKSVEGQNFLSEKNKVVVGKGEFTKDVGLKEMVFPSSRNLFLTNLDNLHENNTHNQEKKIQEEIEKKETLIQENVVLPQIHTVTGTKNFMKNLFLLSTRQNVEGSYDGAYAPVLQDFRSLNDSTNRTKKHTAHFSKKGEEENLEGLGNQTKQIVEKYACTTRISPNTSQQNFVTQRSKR
# T2 sequence (P00451 1668-2351 limits assumed): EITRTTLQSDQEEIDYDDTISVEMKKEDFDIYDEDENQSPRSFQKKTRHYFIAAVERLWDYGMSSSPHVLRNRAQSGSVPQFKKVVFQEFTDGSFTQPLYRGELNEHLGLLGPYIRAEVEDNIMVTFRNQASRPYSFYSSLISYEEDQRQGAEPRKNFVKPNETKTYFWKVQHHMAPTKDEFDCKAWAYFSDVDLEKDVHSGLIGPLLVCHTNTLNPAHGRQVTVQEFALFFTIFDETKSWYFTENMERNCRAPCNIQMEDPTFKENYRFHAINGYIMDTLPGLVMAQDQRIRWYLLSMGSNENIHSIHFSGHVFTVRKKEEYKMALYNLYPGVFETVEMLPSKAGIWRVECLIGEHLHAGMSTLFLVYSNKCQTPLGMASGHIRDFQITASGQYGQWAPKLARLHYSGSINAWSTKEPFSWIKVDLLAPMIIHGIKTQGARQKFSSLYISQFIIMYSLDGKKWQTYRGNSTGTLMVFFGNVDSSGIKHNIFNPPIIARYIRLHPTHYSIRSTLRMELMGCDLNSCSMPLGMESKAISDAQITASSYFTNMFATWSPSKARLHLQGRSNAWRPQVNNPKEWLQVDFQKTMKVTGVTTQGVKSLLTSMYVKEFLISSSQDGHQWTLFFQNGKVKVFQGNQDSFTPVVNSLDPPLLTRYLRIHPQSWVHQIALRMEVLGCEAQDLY
# adeno-virus = assay: Photodynamic treatment of adenovirus with freeze/thaw step (Example 8); format: cell-based
# Bovine Herpes = assay: MB/light virus inactivation in plasma (Example 6, Table VI); format: cell-based; settings: illumination 30 min; * production conditions, plastic bag 250-300 ml plasma
# VSV [3] = format: cell-based, vesicular stomatitis virus; remark: listed apart in the source
# coagulation factor V = biological target: T3, coagulation factor V (Homo sapiens, UniProt P12259); assay: Coagulation factor activity in human plasma with MB and light exposure (Example 10); format: biochemical
# T3 construct: Varying amounts of MB were added to human plasma (2 ml aliquots); from tissue; host or cells: human plasma
# T3 sequence (P12259 29-2224): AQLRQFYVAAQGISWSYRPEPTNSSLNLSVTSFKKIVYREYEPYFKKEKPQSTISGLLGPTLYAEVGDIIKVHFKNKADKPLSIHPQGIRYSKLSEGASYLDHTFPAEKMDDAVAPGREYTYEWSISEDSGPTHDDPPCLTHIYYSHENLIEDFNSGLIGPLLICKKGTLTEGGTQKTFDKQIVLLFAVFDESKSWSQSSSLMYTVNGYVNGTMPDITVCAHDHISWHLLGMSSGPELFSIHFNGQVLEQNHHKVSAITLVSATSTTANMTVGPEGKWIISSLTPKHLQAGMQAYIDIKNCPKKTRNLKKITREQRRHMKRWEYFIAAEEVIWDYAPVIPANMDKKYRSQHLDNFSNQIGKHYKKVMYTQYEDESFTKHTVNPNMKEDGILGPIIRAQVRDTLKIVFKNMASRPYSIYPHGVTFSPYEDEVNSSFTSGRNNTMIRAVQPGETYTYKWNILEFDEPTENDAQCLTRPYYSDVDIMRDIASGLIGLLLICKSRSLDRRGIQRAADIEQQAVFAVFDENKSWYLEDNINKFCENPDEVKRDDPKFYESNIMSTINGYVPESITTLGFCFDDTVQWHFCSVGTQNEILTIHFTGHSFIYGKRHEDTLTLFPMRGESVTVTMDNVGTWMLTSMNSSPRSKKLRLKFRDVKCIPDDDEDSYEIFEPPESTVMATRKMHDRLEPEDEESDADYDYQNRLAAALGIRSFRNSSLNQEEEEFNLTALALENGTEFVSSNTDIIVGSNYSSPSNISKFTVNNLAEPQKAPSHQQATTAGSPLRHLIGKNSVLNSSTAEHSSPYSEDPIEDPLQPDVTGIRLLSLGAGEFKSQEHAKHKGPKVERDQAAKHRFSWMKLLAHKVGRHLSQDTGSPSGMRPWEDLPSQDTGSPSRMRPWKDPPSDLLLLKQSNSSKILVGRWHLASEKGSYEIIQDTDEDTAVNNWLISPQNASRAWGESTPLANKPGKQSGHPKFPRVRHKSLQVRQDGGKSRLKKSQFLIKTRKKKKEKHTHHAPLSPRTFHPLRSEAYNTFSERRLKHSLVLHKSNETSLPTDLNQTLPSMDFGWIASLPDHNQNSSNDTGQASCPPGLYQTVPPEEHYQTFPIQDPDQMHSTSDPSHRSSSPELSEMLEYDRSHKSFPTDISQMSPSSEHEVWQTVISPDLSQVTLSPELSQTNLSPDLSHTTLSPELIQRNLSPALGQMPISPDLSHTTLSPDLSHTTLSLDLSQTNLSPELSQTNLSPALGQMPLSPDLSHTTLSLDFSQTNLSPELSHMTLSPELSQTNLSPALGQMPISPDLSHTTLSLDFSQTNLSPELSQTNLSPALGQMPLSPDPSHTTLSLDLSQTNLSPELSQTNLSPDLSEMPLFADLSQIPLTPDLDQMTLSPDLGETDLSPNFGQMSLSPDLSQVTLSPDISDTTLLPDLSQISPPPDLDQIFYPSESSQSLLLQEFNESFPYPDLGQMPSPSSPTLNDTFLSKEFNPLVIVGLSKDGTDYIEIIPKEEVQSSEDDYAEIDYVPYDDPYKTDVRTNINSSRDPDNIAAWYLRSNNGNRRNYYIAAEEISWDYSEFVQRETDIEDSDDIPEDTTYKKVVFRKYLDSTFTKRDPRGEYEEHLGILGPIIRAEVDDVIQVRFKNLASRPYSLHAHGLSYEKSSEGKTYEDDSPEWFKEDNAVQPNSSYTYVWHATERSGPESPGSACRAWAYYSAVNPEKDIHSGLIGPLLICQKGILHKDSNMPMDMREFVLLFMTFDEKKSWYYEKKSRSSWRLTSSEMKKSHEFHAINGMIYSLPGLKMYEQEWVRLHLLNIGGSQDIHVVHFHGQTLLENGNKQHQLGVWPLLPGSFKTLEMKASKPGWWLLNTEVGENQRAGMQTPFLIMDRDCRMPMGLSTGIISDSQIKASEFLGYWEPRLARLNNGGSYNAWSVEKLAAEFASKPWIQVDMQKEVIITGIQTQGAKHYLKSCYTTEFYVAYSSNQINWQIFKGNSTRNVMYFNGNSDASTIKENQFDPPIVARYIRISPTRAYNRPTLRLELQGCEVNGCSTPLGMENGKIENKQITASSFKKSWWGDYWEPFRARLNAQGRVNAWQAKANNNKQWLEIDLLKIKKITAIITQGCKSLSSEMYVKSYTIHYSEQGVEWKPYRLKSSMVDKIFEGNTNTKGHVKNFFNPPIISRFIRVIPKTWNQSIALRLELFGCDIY
# adenovirus = assay: Photodynamic treatment of adenovirus with pre-incubation in the dark, titrated on FL cells (Example 7); format: cell-based; settings: MB 1 μM; for Virus Titer: illumination 30 min 150,000 Lux
# Suid Herpes Type 1 = format: cell-based
# coagulation factor IX [4] = biological target: T1, coagulation factor IX; assay: Coagulation factor activity in human plasma right after MB addition (Example 9); format: biochemical; settings: no light
structure (smiles),measurement,setting,value
"CN(C)c1ccc2nc3ccc(=[N+](C)C)cc-3sc2c1 [MB, methylene blue]",Inactivation Rate,Semliki Forest,>7.00 log10 TCID50
same,Inactivation Rate,Herpes Simplex,>5.50 * log10 TCID50
same,Inactivation Rate,SV40,>4.00 log10 TCID50
same,Factor IX,"coagulation factor IX [1]; light exposure 0 h, MB 1 μM",1.20 E/ml
same,Factor IX,"coagulation factor IX [1]; light exposure 0 h, MB 2.5 μM",0.46 E/ml
same,Factor IX,"coagulation factor IX [1]; light exposure 0 h, MB 10 μM",0.44 E/ml
same,Factor IX,"coagulation factor IX [1]; light exposure 1 h, MB 1 μM",0.92 E/ml
same,Factor IX,"coagulation factor IX [1]; light exposure 1 h, MB 2.5 μM",0.82 E/ml
same,Factor IX,"coagulation factor IX [1]; light exposure 1 h, MB 10 μM",0.68 E/ml
same,Factor IX,"coagulation factor IX [1]; light exposure 2 h, MB 1 μM",0.90 E/ml
same,Factor IX,"coagulation factor IX [1]; light exposure 2 h, MB 2.5 μM",0.72 E/ml
same,Factor IX,"coagulation factor IX [1]; light exposure 2 h, MB 10 μM",0.74 E/ml
same,Factor IX,"coagulation factor IX [1]; light exposure 4 h, MB 1 μM",0.94 E/ml
same,Factor IX,"coagulation factor IX [1]; light exposure 4 h, MB 2.5 μM",0.82 E/ml
same,Factor IX,"coagulation factor IX [1]; light exposure 4 h, MB 10 μM",0.64 E/ml
same,Inactivation Rate,SIV,>6.26 * log10 TCID50
same,Inactivation Rate,Hog Cholera,>5.92 * log10 TCID50
same,Inactivation Rate,Vesicular Stomatitis,>4.89 * log10 TCID50
same,Inactivation Rate,HIV-1,>6.50 log10 TCID50
same,concentration of MB required for complete inactivation of VSV,VSV [2],0.5 µM
same,inactivation factor (VSV completely inactivated),VSV [2],more than 4 log10
same,Factor VIII,factor VIII,0.42 U/ml
same,Virus Titer,adeno-virus; Sample C: F/T + MB + 60 min pre-incubation + 60 min irradiation,2.5 Log10 TCID50
same,Virus Titer,"adeno-virus; Sample D: MB + F/T, no irradiation",7.5 Log10 TCID50
same,Virus Titer,adeno-virus; Sample E: MB + F/T + 10 min irradiation,5.0 Log10 TCID50
same,Virus Titer,adeno-virus; Sample F: MB + F/T + 30 min irradiation,5.0 Log10 TCID50
same,Virus Titer,adeno-virus; Sample G: MB + F/T + 60 min irradiation,4.0 Log10 TCID50
same,Inactivation Rate,Bovine Herpes,>8.11 * log10 TCID50
same,reduction of infectious titer of VSV,VSV [3],more than 5 log10-steps
same,Factor V,"coagulation factor V; light exposure 0 h, MB 1 μM",0.86 E/ml
same,Factor V,"coagulation factor V; light exposure 0 h, MB 2.5 μM",0.82 E/ml
same,Factor V,"coagulation factor V; light exposure 0 h, MB 10 μM",0.72 E/ml
same,Factor V,"coagulation factor V; light exposure 1 h, MB 1 μM",0.72 E/ml
same,Factor V,"coagulation factor V; light exposure 1 h, MB 2.5 μM",0.68 E/ml
same,Factor V,"coagulation factor V; light exposure 1 h, MB 10 μM",0.47 E/ml
same,Factor V,"coagulation factor V; light exposure 2 h, MB 1 μM",0.64 E/ml
same,Factor V,"coagulation factor V; light exposure 2 h, MB 2.5 μM",0.68 E/ml
same,Factor V,"coagulation factor V; light exposure 2 h, MB 10 μM",0.60 E/ml
same,Factor V,"coagulation factor V; light exposure 4 h, MB 1 μM",0.56 E/ml
same,Factor V,"coagulation factor V; light exposure 4 h, MB 2.5 μM",0.49 E/ml
same,Factor V,"coagulation factor V; light exposure 4 h, MB 10 μM",0.42 E/ml
same,Virus Titer,adenovirus; pre-incubation 0 h,6.0 log10 TCID50
same,Virus Titer,adenovirus; pre-incubation 1 h,5.5 log10 TCID50
same,Virus Titer,adenovirus; pre-incubation 4 h,6.0 log10 TCID50
same,Virus Titer,adenovirus; pre-incubation 24 h,6.0 log10 TCID50
same,change in viral infectivity,adenovirus; regardless of the pre-incubation time,no change in viral infectivity
same,Inactivation Rate,Suid Herpes Type 1,4.43 * log10 TCID50
same,Factor IX,coagulation factor IX [4]; Methylene Blue 1 μM,1.9 E/ml
same,Factor IX,coagulation factor IX [4]; Methylene Blue 2.5 μM,1.6 E/ml
same,Factor IX,coagulation factor IX [4]; Methylene Blue 5 μM,1.45 E/ml
same,Factor IX,coagulation factor IX [4]; Methylene Blue 10 μM,1.20 E/ml
same,Factor IX,coagulation factor IX [4]; Methylene Blue 20 μM,1.10 E/ml
same,MB concentration from which factor IX activity is inhibited,coagulation factor IX [4],2.5 µM
